Reference: US11472798B2 (Mission Therapeutics Limited, priority 2014, dated 2022)

biological target: T1, UCHL1 (Homo sapiens, UniProt P09936); assay: UCHL1 biochemical IC50 assay (fluorescence polarisation); details: 30 min enzyme/compound pre-incubation at room temp, read after 2 hr incubation, read-out: Activity range (UCHL1 biochemical IC50 assay)
T1 construct: made in house; host or cells: HEK293T
T1 sequence (P09936 1-223): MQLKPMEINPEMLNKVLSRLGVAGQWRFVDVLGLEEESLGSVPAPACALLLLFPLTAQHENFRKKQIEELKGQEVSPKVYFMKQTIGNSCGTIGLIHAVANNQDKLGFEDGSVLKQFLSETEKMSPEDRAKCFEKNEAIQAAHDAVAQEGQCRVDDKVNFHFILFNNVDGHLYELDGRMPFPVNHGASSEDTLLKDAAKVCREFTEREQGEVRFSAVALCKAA
From the text: Biological Activity of Compounds of the Invention Abbreviations: TAMRA carboxytetramethylrhodamine PCR polymerase chain reaction PBS phosphate buffered saline EDTA ethylenediaminetetraacetic acid Tris 2-amino-2-(hydroxymethyl)-1,3-propanediol NP-40 Nonidet P-40, octylphenoxypolyethoxyethanol BSA bovine serum albumin In Vitro UCHL1 Inhibition Assay Expression and Purification of UCHL1
The UCHL1 construct was PCR amplified and cloned into a pFLAG-CMV-6a vector (Sigma-Aldrich) with an N-terminal FLAG tag. HEK293T cells were transfected with FLAG-UCHL1 using TransIT-LT1 transfection reagent (Mirus) according to the manufacturer's instructions. Cells were harvested 40 hours after transfection. Cells were washed once with PBS and scraped in lysis buffer (50 mM Tris, pH 7.5, 150 mM NaCl, 3 mM EDTA, 0.5% NP40, 10% glycerol, 5 mM beta-mercaptoethanol, protease inhibitors (complete mini, Roche) and phosphatase inhibitors (PhosSTOP mini, Roche). Lysates were incubated for 30 min on ice and centrifuged at 1200 rpm for 10 min at 4° C. Soluble supernatant was added to FLAG affinity resin (EZview Rad ANTI-FLAG M2 affinity gel, Sigma-Aldrich) equilibrated in low salt buffer (20 mM Tris, pH 7.5, 150 mM NaCl, 0.5 mM EDTA, 5 mM beta-mercaptoethanol) and incubated at 4° C. for 3 hours rotating. The resin was spun at 2000 rpm for 2 min and the supernatant was removed. The resin was washed two times with low salt buffer and one time with high salt buffer (20 mM Tris, pH 7.5, 500 mM NaCl, 0.5 mM EDTA, 5 mM beta-mercaptoethanol, protease inhibitors (complete mini, Roche) and phosphatase inhibitors (PhosSTOP mini, Roche). To elute the bound UCHL1, elution buffer (10 mM Tris, pH 7.5, 150 mM NaCl, 0.5 mM FDTA, 10% glycerol, 0.5% NP40, 5 mM beta-mercaptoethanol, 0.15 mg/ml 3×FLAG peptide (Sigma-Aldrich)) was added to the resin and incubated at 4° C. for 2.5 hours rotating. The resin was centrifuged at 4000 rpm for 30 seconds, and the supernatant containing purified FLAG-UCHL1 was removed and stored at −80° C.
UCHL1 Biochemical IC50 Assay
Dilution plates were prepared at 21 times the final concentration (2100 μM for a final concentration of 100 µM) in 50% DMSO in a 96-well polypropylene V-bottom plate (Greiner #651201). A typical 8-point dilution series to be 100, 30, 10, 3, 1, 0.3, 0.1, 0.03 μM final. Reactions were performed in duplicate in black 384 well plates (small volume, Greiner 784076) in a final reaction volume of 21 μl. Either 1 μl of 50% DMSO or diluted compound was added to the plate. UCHL1 was diluted in reaction buffer (20 mM Tris, pH 7.5, 100 mM NaCl, 0.05% Tween 20, 0.5 mg/ml BSA, 5 mM—beta mercaptoethanol) to the equivalent of 0.05 μl/well and 10 μl of diluted UCHL1 was added to the compound. Enzyme and compound were incubated for 30 min at room temp. Reactions were initiated by the addition of 50 nM of TAMRA labelled peptide linked to ubiquitin via an iso-peptide bond as fluorescence polarisation substrate. Reactions were read immediately after addition of substrate and following a 2 hr incubation at room temperature. Readings were performed on a Pherastar Plus (BMG Labtech). λ Excitation 540 nm; k Emission 590 nm.

Question: Which IC50 does the source give for C#Cc1ccc2cnc(NC(=O)[C@H]3CCN(C#N)[C@H]3C)cc2c1 [Example 264, (2S,3S)-1-cyano-N-(6-ethynylisoquinolin-3-yl)-2-methylpyrrolidine-3-carboxamide] here?
Answer: Its IC50 is 1 to 10 µM.

Question: With Cc1ccc(NC(=O)C2CCN(C#N)C2)nc1 (centres unmarked) [Example 26, 1-cyano-N-(5-methylpyridin-2-yl)pyrrolidine-3-carboxamide] as the molecule, how does the IC50 read?
Answer: Its IC50 is 10 to 30 µM.

Question: For COC[C@H]1CCCN1Cc1cnc(NC(=O)[C@H]2CCN(C#N)[C@H]2C)s1 [Example 145, (2S,3S)-1-cyano-N-(5-(((R)-2-(methoxymethyl)pyrrolidin-1-yl)methyl)thiazol-2-yl)-2-methylpyrrolidine-3-carboxamide], which IC50 is on record?
Answer: Its IC50 is 1 to 10 µM.

Question: For Cc1noc(C)c1-c1ccc2nc(NC(=O)[C@H]3CCN(C#N)C3)sc2c1 [Example 120, (S)-1-cyano-N-(6-(3,5-dimethylisoxazol-4-yl)benzo[d]thiazol-2-yl)pyrrolidine-3-carboxamide], which IC50 is on record?
Answer: Its IC50 is under 1 µM.

Question: Which IC50 does the source give for N#CN1CCC(C(=O)Nc2ncc(CN3CCCC3)s2)C1 (centres unmarked) [Example 141, 1-cyano-N-(5-(pyrrolidin-1-ylmethyl)thiazol-2-yl)pyrrolidine-3-carboxamide] here?
Answer: Its IC50 is 1 to 10 µM.

Question: How did the IC50 turn out when N#CN1CC[C@H](C(=O)Nc2cn3ccccc3n2)C1 [Example 49, (S)-1-cyano-N-N-(imidazo[1,2-a]pyridin-2-yl)-pyrrolidine-3-carboxamide] was run?
Answer: Its IC50 is 1 to 10 µM.

Question: For N#Cc1ccc(C2CC2)cc1-n1cnc(NC(=O)[C@H]2CCN(C#N)C2)c1 [Example 306, (S)-1-cyano-N-(1-(2-cyano-5-cyclopropylphenyl)-1H-imidazol-4-yl)pyrrolidine-3-carboxamide], which IC50 is on record?
Answer: Its IC50 is under 1 µM.

Question: For N#CN1CCC(C(=O)Nc2nc3ccc(C(F)(F)F)cc3s2)C1 (centres unmarked) [Example 20, 1-cyano-N-(6-(trifluoro-methyl)benzo[d]thiazol-2-yl)pyrrolidine-3-carboxamide], which IC50 is on record?
Answer: Its IC50 is 1 to 10 µM.

Question: How did the IC50 turn out when C#Cc1ccc(-c2cnc(NC(=O)[C@H]3CCN(C#N)C3)s2)cc1 [Example 205, (S)-1-cyano-N-(5-(4-ethynylphenyl)thiazol-2-yl)pyrrolidine-3-carboxamide] was run?
Answer: Its IC50 is under 1 µM.

Question: N#CN1CC[C@H](C(=O)Nc2cc3cccnc3cn2)C1 [Example 256, (S)-1-cyano-N-(1,7-naphthyridin-6-yl)pyrrolidine-3-carboxamide] was tested. Which IC50 did it give?
Answer: Its IC50 is 1 to 10 µM.

Question: Which IC50 does the source give for C[C@H]1[C@@H](C(=O)Nc2ncc(-c3ccc(F)cc3)s2)CCN1C#N [Example 73, (2S,3S)-1-cyano-N-(5-(4-fluorophenyl)thiazol-2-yl)-2-methylpyrrolidine-3-carboxamide] here?
Answer: The IC50 was under 1 µM.

Question: COc1cc(-c2ccc3nc(NC(=O)[C@H]4CCN(C#N)C4)cn3c2)c(OC)nn1 [Example 131, (S)-1-cyano-N-(6-(3,6-dimethoxypyridazin-4-yl)imidazo[1,2-a]pyridin-2-yl)pyrrolidine-3-carboxamide] was tested. Which IC50 did it give?
Answer: Its IC50 is under 1 µM.

Question: How did the IC50 turn out when C[C@H]1[C@@H](C(=O)Nc2cn([C@@H](C)c3ccccc3)cn2)CCN1C#N [Example 172, (2S,3S)-1-cyano-2-methyl-N-(1-((S)-1-phenylethyl)-1H-imidazol-4-yl)pyrrolidine-3-carboxamide] was run?
Answer: The IC50 was 1 to 10 µM.

Question: N#CN1CC[C@H](C(=O)Nc2nc3c(s2)CN(C(=O)c2ccccc2)CC3)C1 [Example 191, (S)—N-(5-benzoyl-4,5,6,7-tetrahydrothiazolo[5,4-c]pyridin-2-yl)-1-cyanopyrrolidine-3-carboxamide] was tested. Which IC50 did it give?
Answer: Its IC50 is under 1 µM.

Question: Cc1n[nH]c(C)c1-c1ccc2nc(NC(=O)[C@H]3CCN(C#N)C3)sc2c1 [Example 125, (S)-1-cyano-N-(6-(3,5-dimethyl-1H-pyrazol-4-yl)benzo[d]thiazol-1-2-yl)pyrrolidine-3-carboxamide] was tested. Which IC50 did it give?
Answer: The IC50 was under 1 µM.

Question: Which IC50 does the source give for Cc1ccnc(-n2cnc(NC(=O)[C@H]3CCN(C#N)C3)c2)c1 [Example 174, (S)-1-cyano-N-(1-(4-methylpyridin-2-yl)-1H-imidazol-4-yl)pyrrolidine-3-carboxamide] here?
Answer: The IC50 was under 1 µM.

Question: For N#CN1CC[C@H](C(=O)Nc2ncc(-c3cccc(-n4ccnc4)c3)s2)C1 [Example 216, (S)-N-(5-(3-(1H-imidazol-1-yl)phenyl)thiazol-2-yl)-1-cyanopyrrolidine-3-carboxamide], which IC50 is on record?
Answer: The IC50 was under 1 µM.

Question: For CS(=O)(=O)N1CCc2nc(NC(=O)[C@H]3CCN(C#N)C3)sc2C1 [Example 202, (S)-1-cyano-N-(5-(methylsulfonyl)-4,5,6,7-tetrahydrothiazolo[5,4-c]pyridin-2-yl)pyrrolidine-3-carboxamide], which IC50 is on record?
Answer: The IC50 was under 1 µM.

Question: With N#CN1CC[C@H](C(=O)Nc2cc3n(n2)CCN(Cc2ccccc2)C3)C1 [Example 242, (S)—N-(5-benzyl-4,5,6,7-tetrahydropyrazolo[1,5-a]pyrazin-2-yl)-1-cyanopyrrolidine-3-carboxamide] as the molecule, how does the IC50 read?
Answer: Its IC50 is under 1 µM.

Question: Which IC50 does the source give for N#CN1CC[C@H](C(=O)Nc2cc(C3CCOCC3)[nH]n2)C1 [Example 43, (S)-1-cyano-N-(5-(tetrahydro-2H-pyran-4-yl)-1H-pyrazol-3-yl)pyrrolidine-3-carboxamide] here?
Answer: The IC50 was under 1 µM.

Question: How did the IC50 turn out when N#CN1CCC(C(=O)Nc2cc(-c3ccccc3)no2)C1 (centres unmarked) [Example 13] was run?
Answer: The IC50 was 1 to 10 µM.

Question: Which IC50 does the source give for CNC(=O)c1ccc2cnc(NC(=O)[C@H]3CCN(C#N)C3)cc2c1 [Example 260, (S)-3-(1-cyanopyrrolidine-3-carboxamido)-N-methylisoquinoline-6-carboxamide] here?
Answer: Its IC50 is 1 to 10 µM.

Question: With COC1CCN(c2ccc(NC(=O)[C@H]3CCN(C#N)C3)nc2)CC1 [Example 61, (S)-1-cyano-N-(5-(4-methoxy-piperidin-1-yl)pyridin-2-yl)pyrrolidine-3-carboxamide] as the molecule, how does the IC50 read?
Answer: The IC50 was 1 to 10 µM.

Question: Which IC50 does the source give for N#CN1CC[C@H](C(=O)Nc2cn3cc(Br)ccc3n2)C1 [Example 51, (S)-N-(6-bromoimidazo[1,2-a]pyridin-2-yl)-1-cyano-pyrrolidine-3-carboxamide] here?
Answer: Its IC50 is under 1 µM.

Question: N#Cc1ccc(-c2cnc(NC(=O)[C@H]3CCN(C#N)C3)s2)cc1 [Example 118, (S)-1-cyano-N-(5-(4-cyanophenyl)thiazol-2-yl)pyrrolidine-3-carboxamide] was tested. Which IC50 did it give?
Answer: The IC50 was under 1 µM.

Question: Which IC50 does the source give for Cc1nn(C)c2ccc(-n3cnc(NC(=O)[C@H]4CCN(C#N)C4)c3)cc12 [Example 298, (S)-1-cyano-N-(1-(1,3-dimethyl-1H-indazol-5-yl)-1H-imidazol-4-yl)pyrrolidine-3-carboxamide] here?
Answer: The IC50 was under 1 µM.

Question: With CC1(C(=O)Nc2ncc(-c3ccccc3)s2)CCN(C#N)C1 (centres unmarked) [Example 78, 1-cyano-3-methyl-N-(5-phenylthiazol-2-yl)pyrrolidine-3-carboxamide] as the molecule, how does the IC50 read?
Answer: The IC50 was 1 to 10 µM.

Question: N#CN1CC[C@H](C(=O)Nc2cn(CCc3ccccc3)cn2)C1 [Example 147, (S)-1-cyano-N-(1-phenethyl-1H-imidazol-4-yl)pyrrolidine-3-carboxamide] was tested. Which IC50 did it give?
Answer: The IC50 was under 1 µM.

Question: How did the IC50 turn out when N#CN1CC[C@H](C(=O)Nc2ccn(-c3ccccc3)n2)C1 [Example 45, (S)-1-cyano-N-(1-phenyl-1H-pyrazol-3-yl)pyrrolidine-3-carboxamide] was run?
Answer: Its IC50 is 10 to 30 µM.

Question: COc1cc(-n2cnc(NC(=O)[C@H]3CCN(C#N)C3)c2)ccc1C#N [Example 307, (S)-1-cyano-N-(1-(4-cyano-3-methoxyphenyl)-1H-imidazol-4-yl)pyrrolidine-3-carboxamide] was tested. Which IC50 did it give?
Answer: The IC50 was under 1 µM.

Question: How did the IC50 turn out when N#CN1CC[C@H](C(=O)Nc2cc(-c3ccnc(N)c3)ccn2)C1 [Example 258, (S)-N-(2′-amino-[4,4′-bipyridin]-2-yl)-1-cyanopyrrolidine-3-carboxamide] was run?
Answer: The IC50 was 1 to 10 µM.

Question: For COc1ccc(-c2cc(NC(=O)C3CCN(C#N)C3)on2)cc1 (centres unmarked) [Example 14, 1-cyano-N-(3-(4-methoxyphenyl)isoxazol-5-yl)pyrrolidine-3-carboxamide], which IC50 is on record?
Answer: The IC50 was 1 to 10 µM.
